The values below are quoted from earlier work in patent publication US12582389B2, “Urine preservative composition, device for sampling urine and method for manufacturing a urine sampling device” (VACUTEST KIMA S.R.L., priority 2020, dated 2026).

The conditions of series [1]: urine samples with boric acid.
The next series deals with Klebsiella sp. Conditions: boric acid 1.5-2% W/V with respect to the sample volume.

For the compound `OB(O)O` [boric acid], the “pH of urine samples” value in series [1] is on record as around 5. Also, the “effect on the most sensitive Gram-negative bacterial strains” value in the series with Klebsiella sp. is “death”.
